Results published in ChEMBL document CHEMBL5050826, “Compositions and methods for treating Friedreich's ataxia” (2019).
Activity calls are given as the source filed them. The calls are words filed in the database; no cut-off is given here.

How the values were obtained:
[1] = tested on: Lymphocyte; experiment: Induction of frataxin accumulation in human FRDA-patient isolated lymphocyte at 1 uM assessed as increase in frataxin levels measured after 4 days by Western blot analysis; type: functional, cell-based; details: time 4.0 day
[2] = tested on: Flp-In-293; experiment: Induction of frataxin accumulation in human Flp-In-293 cells stably expressing frataxin at 10 uM assessed as increase in frataxin levels measured after 72 hrs by Western blot analysis; type: functional, cell-based
[3] = tested on: Flp-In-293; experiment: Induction of frataxin accumulation in human Flp-In-293 cells stably expressing frataxin K147R mutant at 10 uM assessed as increase in frataxin levels measured after 24 hrs by Western blot analysis; type: functional, cell-based
[4] = tested on: Flp-In-293; experiment: Induction of frataxin accumulation in human Flp-In-293 cells stably expressing frataxin at 10 uM assessed as increase in frataxin levels measured after 24 hrs by Western blot analysis; type: functional, cell-based
[5] = tested on: Lymphocyte; experiment: Rescue of aconitase activity in human FRDA-patient isolated lymphocyte at 10 uM […]; type: functional, cell-based
[6] = molecular target: T1, Frataxin, mitochondrial (Homo sapiens) (UniProt Q16595); experiment: Inhibition of recombinant frataxin (unknown origin) precursor degradation assessed as half-saturation binding constant (L1/2) and measured by fluorescence based assay
T1 sequence (whole entry): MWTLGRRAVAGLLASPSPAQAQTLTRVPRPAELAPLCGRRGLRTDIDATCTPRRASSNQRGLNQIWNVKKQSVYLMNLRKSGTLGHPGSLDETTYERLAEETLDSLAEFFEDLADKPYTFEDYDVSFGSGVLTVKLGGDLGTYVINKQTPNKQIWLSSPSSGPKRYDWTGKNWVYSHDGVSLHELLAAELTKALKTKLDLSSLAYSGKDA

[7] = tested on: Lymphocyte; experiment: Induction of frataxin accumulation in human FRDA-patient isolated lymphocyte at 10 uM assessed as increase in frataxin levels measured by Western blot analysis; type: functional, cell-based
[8] = molecular target: T1, Frataxin, mitochondrial (Homo sapiens); experiment: Inhibition of frataxin ubiquitination in human HEK293 cells transiently co-transfected with HA-Ub and frataxin at 10 uM and measured after 48 hrs by Western blot analysis; type: cell-based

Row | Structure (SMILES) | Activity [1] | Activity [2] | Activity [3] | Activity [4] | Activity [5] | K1/2 [6] [µM] | Activity [7] | inhibition [8]
1 | COc1ccccc1C(=O)N/N=C(\C)c1ccc2c(c1)Nc1ccccc1S2 | Active | – | – | – | – | – | – | –
2 | C/C(=N\NC(=O)c1ccccc1)c1ccc2c(c1)Nc1ccccc1S2 | – | Active | inactive | Active | Active | 2.3 | Active | –
3 | C/C(=N\NC(=O)c1ccc(C)cc1C)c1ccc2c(c1)Nc1ccccc1S2 | – | Active | inactive | Active | – | 2.9 | Active | Active
4 | C/C(=N\NC(=O)c1cc2ccccc2cc1O)c1ccc2c(c1)Nc1ccccc1S2 | – | – | inactive | Active | – | – | – | Active
